Results published in the METLIN SMRT retention time set (Domingo-Almenara et al. 2019).

Assay: gradient 5% acetonitrile 3 min, to 50% in 2 min, to 85% in 15 min, held 3 min, 100 µL/min
Settings: column: Zorbax Extend-C18 2.1 x 50 mm; eluents: water / acetonitrile, 0.1% formic acid
In short: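 Mixtures of ~100 pure standards were chromatographed on a Zorbax Extend-C18 column (2.1 × 50 mm, 1.8 μm) at 100 μL/min using water and acetonitrile, each with 0.1% formic acid. Detection used a quadrupole time-of-flight mass spectrometer in positive and negative ionization mode, and data collection spanned 3 months. Retention time was obtained from adduct peaks picked computationally and each checked manually.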

Structure (SMILES)	RP-LC retention time [s]
O=C(C1=CN(c2cccc(F)c2)c2cc(F)ccc2S1(=O)=O)N1CCCCC1	872
CSc1ccc(CNC(=O)c2ccc3c(c2)NC(=O)C2CCCCN32)cc1 (stereo not drawn)	850
CC(C)c1noc(-c2cc(=O)n(CC(=O)Nc3ccc4c(c3)OCCO4)c3ccccc23)n1	941
O=C(NCCc1ccc(N2CCCC2)cc1)C(=O)Nc1ccc2c(c1)OCCO2	844
C=CCN1C(=O)COc2ccc(-c3csc(NC(=O)C(C)C)n3)cc21	895
COC(=O)c1ccc2c(=O)n(-c3ccccc3)c(N3CCCCC3)nc2c1	1170
CNC(=O)c1cnn(-c2ccc(-c3nc(C4CC4)no3)cn2)c1C	746
COc1cc(S(N)(=O)=O)c(OC)cc1N	616
Cn1nc(CNC(=O)c2cccc(NC(=O)c3ccco3)c2)c2ccccc21	736
CCc1ccc(OCc2nc(C)c(C(=O)Nc3nc(-c4ccc(C)cc4)cs3)s2)cc1	1420
Cc1ccc(NS(=O)(=O)c2ccc(-c3nnc(C4CCC4)o3)o2)c(F)c1	925
COc1ccc(-c2ncccc2CNS(=O)(=O)c2cccc(OC)c2)cc1	670
COc1cc(C(=O)Nc2cccc(N3CCCS3(=O)=O)c2)c([N+](=O)[O-])cc1OC	681
Cc1ccc(NC(=O)C2CCCN(c3ncnc4c3nc3n4CCCCC3)C2)cc1Cl (stereo not drawn)	958
CCn1cc(C)c(C(=O)O)c1CC(=O)Nc1cc(F)ccc1F	859
Cc1[nH]c2ccccc2c1C(=O)C(=O)NCc1ccccn1	605
O=C(NC1CCCC1)N1CCC(c2nc(C3CCOCC3)no2)CC1	691
CCN1c2ccccc2C(=O)NC12CCN(C(=O)NCc1ccc(C)cc1)CC2	796
CC(=O)c1cccc(NC(=O)CN2C(=O)COc3ccc(C(=O)N(C)C)cc32)c1	651
Cc1cc(C(=O)N2CC(F)(F)C[C@H]2c2nc(C3CC3)no2)on1	809
CNC(=O)c1[nH]c2ccc(C)cc2c1N1CCCC1=O	675
COC(=O)c1ccccc1NC(=O)CN1CCC(c2nc(-c3cccc(F)c3)no2)CC1	738
CCN(C(=O)Nc1ccccc1C(F)(F)F)c1nc(-c2ccc(C)cc2)cs1	576
COc1ccc(-c2nnc(Cc3nc(-c4ccccc4C)no3)o2)cc1	1010
Cc1ccc(F)cc1S(=O)(=O)N1CCc2c(c(-c3nnc(-c4ccc(F)cc4)o3)nn2C)C1	1000
CCOc1ccc(-c2noc(-c3nn(-c4ccccc4)ccc3=O)n2)cc1	919
COc1ccc(CCC(=O)Nc2nc(-c3ccc(Cl)cc3)cs2)cc1	1120

Structure (SMILES)	RP-LC retention time [s]
Cc1nc(-c2ccncc2)nc2c1CCC(=O)N2CC1COCCO1 (stereo not drawn)	591
CCOc1ccc(CNC(=O)c2cnc(N3CCSCC3)nc2N)cc1	716
COCc1noc([C@@H]2CN(C(=O)CC3CCCC3)C[C@H]2CO)n1	670
COc1ccc(OC)c(S(=O)(=O)Nc2cc(-c3nc4cccnc4s3)ccc2C)c1	888
Cc1ccsc1C(=O)Nc1cccn2c(C)nnc12	670
Fc1ccc(OCc2nnc3sc(-c4ccccc4F)nn23)cc1	940
O=C(Cn1nc(N2CCOCC2)c2ccccc2c1=O)Nc1ccc(Br)cc1	864
COCCn1c(SCc2c(F)cccc2Cl)nnc1-c1cn(C)nc1OC	683
CN1CCCc2cc(C(=O)NCc3cccc(F)c3)sc21	915
Cc1nn(-c2ccc(C(=O)NCc3ccco3)cc2)cc1NC(=O)C(C)C	722
COc1ccc(NC(=O)N(C)CCc2noc(COc3ccc(F)cc3)n2)cc1	692
CC(C)CC(=O)Nc1c(-c2ccc(F)cc2)nc2ccccn12	650
Cc1cccc(-c2noc(C3CC(=O)N(c4ccc5c(c4)OCO5)C3)n2)c1 (stereo not drawn)	978
Cn1nc(-c2nnc(-c3ccccc3)o2)c2c1CCN(S(=O)(=O)c1ccc(F)cc1F)C2	955
CN1Cc2ccccc2-n2ccnc2C12CCN(C(=O)NC1CCCCC1)CC2	611
O=C(CN1CCN(Cc2ccc(F)cc2)C1=O)NCCc1ccccn1	552
COc1ccc(-c2ncc3c(=O)n(CC(=O)Nc4cc(OC)cc(OC)c4)cnc3n2)cc1	854
CCn1c(=O)c2c(cc(C)n2C)n(CC(=O)Nc2ccc(C)cc2C)c1=O	812
Cc1ccc2[nH]cc(CCNC(=O)c3ccc4nc(C(C)C)oc4c3)c2c1	925
CCCNc1cc(N2CCC(CCC(=O)Nc3ccccc3)CC2)ncn1	704
O=c1c2nc(-c3ccc4c(c3)OCO4)cn2ccn1-c1ccc(F)cc1	772
O=C(NCc1ccco1)C1CCCN(c2nnc3c(Cl)cccn23)C1 (stereo not drawn)	627
CSCC[C@H](NC(=O)C(C)Oc1cc(C)cc2oc(=O)c3c(c12)CCCC3)C(=O)O (stereo partly drawn)	860
COCCn1cc(C(=O)NCC(C)C)c2nn(-c3ccccc3)c(=O)c-2c1	851
COc1ccccc1OCCN1C(=O)C(NC(C)=O)c2ccccc21 (stereo not drawn)	666
Cc1ccc(CNC(=O)Cn2c(C)cc(-c3nnc(C4CCC4)o3)c2C)cc1	903
O=C(Cn1ccc2c(SCc3ccc(F)cc3)nccc21)NCc1ccc(N2CCOCC2)cc1	706

Further lines, results first:

RP-LC retention time [s]	Structure (SMILES)
960	Cc1cc(NC(=O)c2cn(C)nc2S(=O)(=O)N2CCSCC2)ccc1F
717	Cc1ccccc1NC(=O)C1CC(=O)N(c2ccc3c(c2)CCN3C(=O)C2CC2)C1 (stereo not drawn)
842	O=C(N[C@H]1C[C@@H]2C[C@H]1CN2C(=O)c1ccc(OC(F)(F)F)cc1)c1cccs1
913	Cc1ccc(N2CCN(C(=O)c3cn(-c4ccc(NC(=O)C5CC5)cn4)cn3)CC2)c(C)c1
736	O=C(CN1C(=O)COc2ccc(C(=O)N3CCN(c4ccc(F)cc4)CC3)cc21)N1CCCC1
1060	Cc1c(-c2nnc(C3CCC3)o2)c(S(=O)(=O)Nc2cccc(Cl)c2F)c(C)n1C
562	COc1ccc2c(c1)c(CN1CCC(C(=O)NCCN3CCCCC3)CC1)cn2C
666	O=C(Cc1cccs1)N1CCN(S(=O)(=O)C2CC2)CC1
779	CCN1C(=O)C2(CCN(C(=O)C3CC3)CC2)c2ccccc21
825	Cc1nc(-c2ccc(N3CCN(C(=O)c4cccc(C#N)c4)CC3)nc2)sc1C
547	Cc1ccsc1CN1CCN(c2cnn3cnnc3c2)CC1
810	CC(C)NC(=O)CN1C(=O)C2CCCCN2c2ccc(S(=O)(=O)N3CCCC3)cc21 (stereo not drawn)
902	O=C(CCC1CCCN(S(=O)(=O)c2ccccc2)C1)N1CCCCC1 (stereo not drawn)
683	Cc1cnc(C(=O)NC2C[C@H]3CC[C@@H](C2)N3C(=O)c2ccc(C)s2)cn1 (stereo partly drawn)
575	CS(=O)(=O)N1C[C@H]2CCN(Cc3cccc(F)c3F)C[C@H]21
674	Cc1ccc(NC(=O)Cn2cnc3nc(N4CCC(C(=O)NC5CC5)CC4)sc3c2=O)cc1
790	COc1cccc(CC(=O)N2CCC3(CC2)NC(=O)c2ccc(Cl)cc2N3)c1

RP-LC retention time [s]	Structure (SMILES)
1090	CCc1nc(-c2csc(S(=O)(=O)N3CCC(C(=O)Nc4ccc(C)cc4C)CC3)c2)no1
776	COc1ccccc1OCCNC(=O)C1CCc2nc(N3CCC(C)CC3)ncc2C1 (stereo not drawn)
702	CCCNc1cc(N2CCC(CCC(=O)NCc3ccccc3C)CC2)ncn1
836	CCOC(=O)N1CCN(c2nc(F)c(F)c(S(=O)(=O)CCN3C(=O)CCC3=O)c2F)CC1
1000	O=C(CN1C(=O)CCCc2cc(S(=O)(=O)N3CCCCC3)ccc21)Nc1ccc(F)c(Cl)c1
917	CC(C)OCCCNC(=O)c1nnc(-c2ccc(S(=O)(=O)N3CCCCC3)cc2)o1
614	CC(C)(C)NC(=O)N1CCCN(S(C)(=O)=O)CC1
614	CC(C)n1cnnc1CC1CCN(C(=O)C2CCN(S(=O)(=O)N3CCOCC3)CC2)CC1
648	CCc1nnc2nc(N3CCN(C(=O)COc4ccc(Cl)cc4)CC3)cc(C)n12
727	CC(C)c1nnc(NC(=O)C2CCN(C(=O)c3ccccc3F)CC2)s1
1310	Cc1ccccc1CNC(=O)C1(C)CCN(S(=O)(=O)c2ccc(C3CCCCC3)cc2)CC1
812	CCOc1ncccc1CNC(=O)CC1CCCC1
814	CCC(C)NC(=O)NC1CCN(C2=NS(=O)(=O)C(c3cccc(Cl)c3)=C2C)CC1 (stereo not drawn)
883	O=C(Nc1ccc(F)cc1)C1CCCN(c2ccc3cc(S(=O)(=O)N4CCCCC4)ccc3n2)C1 (stereo not drawn)
775	CCc1onc(C)c1C1CCCN1C(=O)c1ccc(C)cc1 (stereo not drawn)
775	COC(=O)c1c(C)[nH]c(C(=O)N2CCC(CC(=O)NCc3ccccc3Cl)CC2)c1C
787	Cc1cccc(CNC2=NCCNC23CCN(S(=O)(=O)c2cc(C)cc(C)c2)CC3)c1
